{
  "source": "patent US20250073209A1",
  "about": "“COVALENT TARGETING OF RhoA FOR CANCER THERAPY” (The University of Hong Kong, priority 2023, published 2025)",
  "key": {"Rac1": {"target": "Rac1 (Homo sapiens, UniProt P63000)", "test": "Gel-based competitive ABPP, second screening on Rac1", "type": "binding", "protocol": "Recombinant human RhoA (0.1 μg; ab101594) was pretreated with cysteine-reactive compounds or DMSO for 1 hour at room temperature, followed by incubation with iodoacetamide-rhodamine (IA-Rh; 1 μM) for 1 hour at room temperature. The reaction was then quenched by boiling in sampling buffer. Samples were subjected to SDS-PAGE to separate proteins bands. In-gel fluorescence intensity was measured with a Chemidoc using setting for Rhodamine. Gel was subsequently stained with silver stain (Pierce) for visualization of protein content and covalent modification. Band intensity was quantified using ImageJ.\nCL16 was identified for its strong and specific binding with RhoA in covalent ligand screening experiment by ABPP. ABPP is known as a powerful platform for covalent ligand screening, particularly for the identification of lead compounds targeting new hotspots for therapy. Competitive gel-based activity-based protein profiling (ABPP) experiment was performed on purified RhoA protein for screening its interactions with a library of cysteine-reactive covalent ligands with acrylamide or chloroacetamide warheads. RhoA protein for the first screening and on Rac1 and Cdc42 for the second screening to identify lead compounds with specific binding onto RhoA Cys16. […] The reaction mixture was then resolved by SDS-PAGE and in-gel fluorescence was imaged (FIG. 1A). […]"}, "HCT116 cells [1]": {"system": "HCT116 cells", "test": "Gel ABPP in HCT116 cells with CL16-alkyne", "type": "cell-based, human", "protocol": "HCT116 and SW620 cells were plated onto 6-well plate at a density of 5×10^5 cells per well overnight. Then the cells were treated with CL16 at indicated concentration for 2 hours, followed by treatment with CL16-alkyne (1 μM) for 2 hours. After treatment, the cells were washed with PBS and lysed by probe sonication. Cell debris were removed by centrifugation at 5,000g for 10 min at 4° C. 50 μL of normalized protein lysates (2 mg/mL) were labeled with azide-fluor 545 by copper-catalyzed azide-alkyne cycloaddition at room temperature in dark for an hour. Then, the reaction was quenched by boiling in sampling buffer and samples were subjected to SDS-PAGE to separate proteins band for measuring in-gel fluorescence. After imaging, the gel was washed with MilliQ and incubated with Coomassie Blue stain with gentle shaking.\nTo identify protein target and any off-targets of CL16 in CRCs, a molecular probe of CL16, CL16-alkyne (FIG. 6A), was synthesized. […] The protein bands were then visualized by their in-gel fluorescence or blotted for RhoA. […] The probe-labeled proteins were installed with rhodamine through CuAAC, and visualized by their in-gel fluorescence after SDS-PAGE. A protein band with strong fluorescence was found at −22 kDa in the sample incubated with CL16-alkyne only, in line with the molecular weight of RhoA (FIG. 6C)."}, "HCT116 cells [2]": {"system": "HCT116 cells", "test": "F-actin staining (Alexa Fluor 488-Phalloidin), serum re-stimulation", "type": "cell-based, human", "conditions": "HCT116, 24 h, 10% FBS re-stimulation 10 min", "protocol": "To further validate the inhibitory effects of CL16 on RhoA, HCT116 and HT29 cells were transfected with a FRET-RhoA biosensor, where cells with elevated RhoA activity would show a higher FRET/mTFP1. Specifically, HCT116 cells transfected with FRET-RhoA biosensor were treated with CL16 or solvent in serum-free medium for 24 h, washed with PBS, re-stimulated with 10% FBS for 10 min, washed, and then imaged in HBSS by confocal fluorescence microscopy. […] In addition, HCT116 cells were serum-starved and treated with CL16 or Rhosin for 24 h, followed by 10% FBS re-stimulation for 10 min. The cells were then washed and fixed by 4% paraformaldehyde, washed with PBS and stained with Alexa Fluor 488-Phalloidin in PBS (1:20, v/v) at room temperature for 15 min. The cells were washed with PBS, incubated with Hoechst (8.2 μM) in PBS for 15 min, washed and then imaged in PBS by confocal fluorescence microscopy. […] Since RhoA regulates cytoskeletal dynamics and RhoA activation can induce the formation of contractile F-actin, the reduction of F-actin fibers by CL16 treatment supports its inhibitory roles on RhoA signaling."}, "RhoA": {"target": "RhoA (Homo sapiens, UniProt P61586)", "sequence (P61586 whole entry)": "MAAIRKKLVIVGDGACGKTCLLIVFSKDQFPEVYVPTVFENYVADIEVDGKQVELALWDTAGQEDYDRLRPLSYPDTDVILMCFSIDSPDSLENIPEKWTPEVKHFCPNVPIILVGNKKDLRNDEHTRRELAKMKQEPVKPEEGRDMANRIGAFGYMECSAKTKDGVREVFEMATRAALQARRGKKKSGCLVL", "test": "Fluorescence assay of MANT-GTP binding onto RhoA", "type": "biochemical", "conditions": "pre-incubation of RhoA with CL16", "protocol": "FIGS. 10A and 10B are graphs showing GTP binding assay of RhoA (0.75 μg) with CL16 (FIG. 10A) and GTP-MANT (5.6 μM) (FIG. 10B) in the buffer solution (20 mM Tris, 50 mM NaCl, 10 mM MgCl2, pH 7.5)."}},
  "data": [
    {"smiles": "O=C(CCl)N1N=C(c2cc3ccccc3o2)CC1c1ccco1", "note": "(centres unmarked) [CL16]", "values": [
      {"measurement": "binding with Rac1", "setting": "Rac1", "value": "no observable binding"},
      {"measurement": "fluorescent protein band at 22 kDa labeled by CL16-alkyne", "setting": "HCT116 cells [1]; CL16 pre-treatment at 10 μM", "value": "complete abolishment of the protein band"},
      {"measurement": "off-target binding", "setting": "HCT116 cells [1]; HCT116 cells", "value": "minimal off-target binding"},
      {"measurement": "concentration from which reduction of F-actin fibers was observed", "setting": "HCT116 cells [2]", "value": "≥ 5", "unit": "µM"},
      {"measurement": "MANT-GTP binding onto RhoA (increase in fluorescence intensity)", "setting": "RhoA", "value": "significantly slowed down the increase in fluorescence intensity"}
    ]}
  ]
}
